In patent publication US7803821B2, “Fungicide N-cycloalkyl-carboxamide, thiocarboxamide and N-substituted-carboximidamide derivatives” (Bayer Cropscience SA, priority 2006, dated 2010) one finds logP and chromatographic logP data, which are given here for 10 compounds.

One data set is described as follows: log P by HPLC on reversed-phase column (C18), EEC Directive 79/831 Annex V.A8. The data set is classed as physicochemical. Conditions: C18, 40° C., 0.1% aqueous formic acid and acetonitrile, gradient 10% to 90% acetonitrile. As to the method: Temperature: 40° C.; Mobile phases: 0.1% aqueous formic acid and acetonitrile; linear gradient from 10% acetonitrile to 90% acetonitrile.
What is called logP is a log measure of how a compound divides between an organic and an aqueous phase. A higher logP goes with higher lipophilicity. For the compound `COc1ccc(CN(C(=O)c2occc2C)C2CC2)cn1` [Example 59], the logP is listed as 2.46. The same measure, in the same setting: in the case of `Cc1nc(C(F)F)c(C(=O)N(Cc2ncc(Cl)cc2Cl)C2CC2)s1` [Example 24] it was 3.42; in that of `CCOc1nn(C)cc1C(=O)N(Cc1ccc(Cl)cn1)C1CC1` [Example 49], 1.98; in that of `COc1ccc(CN(C(=O)c2cc(C)n(C)n2)C2CC2)cn1` [Example 64], 1.74. In turn, `Cc1nc(C(F)F)c(C(=O)N(C2CC2)C(C)c2ncc(Cl)cc2Cl)s1` (stereo not shown) [Example 20] yielded a logP of 3.64. In the case of `CC(c1ncc(Cl)cc1Cl)N(C(=O)c1cn(C)nc1C(F)F)C1CC1` (stereo not shown) [Example 31], the logP came to 3.01.

`Cc1cc(C(=O)N(C2CC2)C(C)c2cccnc2Cl)nn1C` (racemic) [Example 84]: the lipophilicity (logP) stood at 1.78. The same measure, in the same setting: then `Cc1nc(C(F)F)c(C(=O)N(Cc2ccc(Cl)cn2)C2CC2)s1` [Example 52], with 2.54; and `Cc1nc(C(F)(F)F)ccc1CN(C(=O)c1cn(C)nc1C(F)F)C1CC1` [Example 87], with 2.51.

Still in this data set, the particulars now being: reversed-phase HPLC column (C18), C18, 40° C., 0.1% aqueous formic acid and acetonitrile, gradient 10% to 90% acetonitrile.
Usually chromatographic logP stands for lipophilicity estimated from chromatographic retention. High values mean higher lipophilicity, low ones lower lipophilicity. `CCC(c1ccncc1)N(C(=O)c1c(C)nn(C)c1F)C1CC1` (stereo not shown) [Example 17, N-cyclopropyl-N-[1-pyridin-4-yl-propyl]-5-fluoro-1,3-dimethyl-1H-pyrazole-4-carboxamide]: the chromatographic logP amounted to 0.92.
